Test results: US9040519B2, “Fused tetracyclic pyrido [4,3-B] indole and pyrido [3,4-B] indole derivatives and methods of use” (Medivation Technologies, Inc., priority 2010, dated 2015)

Assays:
[1] = target: T1, human recombinant serotonin (5-Hydroxytryptamine) 5-HT2C receptor (Homo sapiens, UniProt P28335); assay: Serotonin 5-HT2C radioligand binding ([3H]Mesulergine); details: compound at 0.1 μM, CHO K1 cells; for inhibition at 0.1 µM: read-out: Percentage inhibition of ligand binding, Serotonin 5-HT2C
T1 construct: expressed in transfected cells; host or cells: CHO-K1
T1 sequence (P28335 33-458): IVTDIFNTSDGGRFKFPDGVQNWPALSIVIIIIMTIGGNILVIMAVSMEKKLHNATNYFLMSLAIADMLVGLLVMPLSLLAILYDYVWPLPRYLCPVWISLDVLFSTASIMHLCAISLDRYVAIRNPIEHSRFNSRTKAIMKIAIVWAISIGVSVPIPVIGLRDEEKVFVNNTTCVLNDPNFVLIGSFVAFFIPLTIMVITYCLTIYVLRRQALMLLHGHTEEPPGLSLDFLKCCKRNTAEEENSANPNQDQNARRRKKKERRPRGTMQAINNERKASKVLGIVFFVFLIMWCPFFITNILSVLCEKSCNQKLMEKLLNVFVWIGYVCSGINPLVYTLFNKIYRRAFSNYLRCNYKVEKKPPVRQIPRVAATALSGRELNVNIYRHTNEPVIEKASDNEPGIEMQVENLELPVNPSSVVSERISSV
Experimental: To evaluate in radioligand binding assays the activity of compounds of the invention, human recombinant serotonin (5-Hydroxytryptamine) 5-HT2C receptor expressed in Chinese hamster ovary (CHO) K1 cells (Wolf, W. et al, J. Neurochem. 69:1449, 1997) in a modified Tris-HCl buffer (50 mM Tris-HCl, pH 7.4, 0.1% Ascorbic Acid, 10 μM Pargyline) was used. Compounds of the invention were incubated with 1 nM [^3H]Mesulergine for 60 min at 25° C. Non-specific binding was estimated in the presence of 1 μM Mianserin. Receptor proteins were filtered and washed, the filters were then counted to determine [^3H]Mesulergine specifically bound. Compounds were screened at 1 μM or lower, using 1% DMSO as vehicle. Biochemical assay results are presented as the percent inhibition of specific binding in Table 4.

[2] = target: T2, human recombinant serotonin (5-Hydroxytryptamine) 5-HT2A receptor (Homo sapiens, UniProt P28223); assay: Serotonin 5-HT2A radioligand binding ([3H]Ketanserin); details: compound at 0.1 μM, CHO K1 cells; for inhibition at 0.1 µM: read-out: Percentage inhibition of ligand binding, Serotonin 5-HT2A
T2 construct: expressed in transfected cells; host or cells: CHO-K1
T2 sequence (P28223 whole entry): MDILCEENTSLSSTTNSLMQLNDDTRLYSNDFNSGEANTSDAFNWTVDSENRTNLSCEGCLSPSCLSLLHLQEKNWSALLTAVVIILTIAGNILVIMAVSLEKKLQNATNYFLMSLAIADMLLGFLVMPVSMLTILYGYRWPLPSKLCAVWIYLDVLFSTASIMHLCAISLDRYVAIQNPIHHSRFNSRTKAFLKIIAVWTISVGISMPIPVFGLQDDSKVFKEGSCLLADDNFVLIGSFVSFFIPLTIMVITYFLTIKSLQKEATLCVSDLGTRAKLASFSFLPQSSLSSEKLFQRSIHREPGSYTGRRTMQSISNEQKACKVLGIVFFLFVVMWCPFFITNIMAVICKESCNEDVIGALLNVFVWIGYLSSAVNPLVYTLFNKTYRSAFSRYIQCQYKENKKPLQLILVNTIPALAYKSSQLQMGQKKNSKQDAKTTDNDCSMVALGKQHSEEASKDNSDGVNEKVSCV
Experimental: To evaluate in radioligand binding assays the activity of compounds of the invention, human recombinant serotonin (5-Hydroxytryptamine) 5-HT2A receptor expressed in Chinese hamster ovary (CHO) K1 cells (Bonhaus, D. et al, Br. J. Pharmacol. 115:622, 1995; Saucier, C. et al, J. Neurochem. 68:1998, 1997) in a 50 mM Tris-HCl buffer, pH 7.4, was used. Compounds of the invention were incubated with 0.5 nM [^3H]Ketanserin for 60 min at 25° C. Non-specific binding was estimated in the presence of 1 μM Mianserin. Receptor proteins were filtered and washed, the filters were then counted to determine [^3H]Ketanserin specifically bound. Compounds were screened at 1 μM or lower, using 1% DMSO as vehicle. Biochemical assay results are presented as the percent inhibition of specific binding in Table 4.

[3] = target: T3, human recombinant dopamine D2L receptor (Homo sapiens, UniProt P14416); assay: Dopamine D2L radioligand binding ([3H]Spiperone); details: compound at 1 μM, CHO cells; for inhibition at 1 µM: read-out: Percentage inhibition of ligand binding, Dopamine D2L; for Percentage inhibition of ligand binding, Dopamine D2L: 1 µM
T3 construct: expressed in transfected cells; host or cells: CHO
T3 sequence (P14416 whole entry): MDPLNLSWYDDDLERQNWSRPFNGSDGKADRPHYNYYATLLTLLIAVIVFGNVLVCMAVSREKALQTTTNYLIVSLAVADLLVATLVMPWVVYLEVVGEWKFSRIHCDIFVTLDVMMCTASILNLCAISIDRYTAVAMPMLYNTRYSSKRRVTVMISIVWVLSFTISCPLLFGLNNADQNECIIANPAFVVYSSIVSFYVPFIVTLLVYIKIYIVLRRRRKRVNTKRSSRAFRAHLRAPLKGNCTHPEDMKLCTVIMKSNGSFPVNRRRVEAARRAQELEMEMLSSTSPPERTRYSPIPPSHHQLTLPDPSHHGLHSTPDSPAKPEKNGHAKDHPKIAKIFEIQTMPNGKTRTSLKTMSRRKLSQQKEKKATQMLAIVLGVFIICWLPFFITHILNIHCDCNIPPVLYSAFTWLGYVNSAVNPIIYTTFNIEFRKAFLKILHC
Experimental: To evaluate in radioligand binding assays the activity of compounds of the invention, human recombinant dopamine D2L receptor expressed in Chinese hamster ovary (CHO) cells (Grandy, D. et al, Proc. Natl. Acad. Sci. USA. 86:9762, 1989; Hayes, G. et al, Mol. Endocrinol. 6:920, 1992) in a modified Tris-HCl buffer (50 mM Tris-HCl, pH 7.4, 1.4 mM Ascorbic Acid, 0.001% BSA, 150 mM NaCl) was used. Compounds of the invention were incubated with 0.16 nM [^3H]Spiperone for 120 min at 25° C. Non-specific binding was estimated in the presence of 10 μM Haloperidol. Receptor proteins were filtered and washed, the filters were then counted to determine [^3H]Spiperone specifically bound. Compounds were screened at 1 μM or lower, using 1% DMSO as vehicle. Biochemical assay results are presented as the percent inhibition of specific binding in Table 3.

[4] = target: T4, human recombinant histamine H1 receptor (Homo sapiens, UniProt P35367); assay: Histamine H1 radioligand binding ([3H]Pyrilamine); details: compound at 1 μM, 1.2 nM [3H]Pyrilamine, CHO K1 cells; for inhibition at 1 µM: read-out: Histamine H1 Binding (1 μM), percentage inhibition
T4 construct: expressed in transfected cells; host or cells: CHO-K1
T4 sequence (P35367 whole entry): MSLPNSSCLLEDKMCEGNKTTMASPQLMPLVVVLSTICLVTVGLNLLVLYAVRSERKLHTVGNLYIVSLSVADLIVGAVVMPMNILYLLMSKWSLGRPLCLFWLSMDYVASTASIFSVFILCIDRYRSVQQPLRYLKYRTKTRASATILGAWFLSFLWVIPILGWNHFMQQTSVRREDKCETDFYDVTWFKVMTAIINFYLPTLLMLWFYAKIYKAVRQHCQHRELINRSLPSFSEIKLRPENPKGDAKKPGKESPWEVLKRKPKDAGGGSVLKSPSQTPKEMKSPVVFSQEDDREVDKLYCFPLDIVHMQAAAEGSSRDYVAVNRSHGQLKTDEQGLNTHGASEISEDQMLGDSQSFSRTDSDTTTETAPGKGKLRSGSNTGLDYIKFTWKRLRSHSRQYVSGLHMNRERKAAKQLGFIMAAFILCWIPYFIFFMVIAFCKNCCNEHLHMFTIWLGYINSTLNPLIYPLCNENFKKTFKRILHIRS
Experimental: To evaluate in radioligand binding assays the activity of compounds of the invention, human recombinant histamine H1 receptor expressed in Chinese hamster ovary (CHO) K1 cells (De Backer, M. et al, Biochem. Biophys. Res. Comm. 197(3):1601, 1993) in a modified Tris-HCl buffer (50 mM Tris-HCl, pH 7.4, 2 mM MgCl2, 100 mM NaCl, 250 mM Sucrose) was used. Compounds of the invention were incubated with 1.2 nM [^3H]Pyrilamine for 180 min at 25° C. Non-specific binding was estimated in the presence of 1 μM Pyrilamine. Receptor proteins were filtered and washed, the filters were then counted to determine [^3H]Pyrilamine specifically bound. Compounds were screened at 1 μM or lower, using 1% DMSO as vehicle. Biochemical assay results are presented as the percent inhibition of specific binding in Table 2.

[5] = target: T5, human recombinant serotonin (5-Hydroxytryptamine) 5-HT6 receptor (Homo sapiens, UniProt P50406); assay: Serotonin 5-HT6 radioligand binding ([3H]LSD); details: compound at 0.1 μM, HeLa cells; for inhibition at 0.1 µM: read-out: Percentage inhibition of ligand binding, Serotonin 5-HT6; for Percentage inhibition of ligand binding, Serotonin 5-HT6: 0.1 µM
T5 construct: expressed in transfected cells; host or cells: HeLa
T5 sequence (P50406 whole entry): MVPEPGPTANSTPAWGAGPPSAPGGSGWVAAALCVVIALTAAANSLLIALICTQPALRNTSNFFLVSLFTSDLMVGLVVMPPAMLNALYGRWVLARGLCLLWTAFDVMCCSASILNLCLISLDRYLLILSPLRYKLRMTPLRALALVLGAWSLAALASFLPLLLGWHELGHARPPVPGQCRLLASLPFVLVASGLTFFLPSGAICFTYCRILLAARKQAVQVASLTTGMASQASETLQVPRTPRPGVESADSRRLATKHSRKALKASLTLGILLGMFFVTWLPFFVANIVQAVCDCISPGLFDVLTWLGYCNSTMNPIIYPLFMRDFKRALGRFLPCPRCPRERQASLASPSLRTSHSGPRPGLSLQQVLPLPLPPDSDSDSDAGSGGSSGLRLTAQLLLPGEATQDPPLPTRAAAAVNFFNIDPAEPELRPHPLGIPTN
Experimental: To evaluate in radioligand binding assays the activity of compounds of the invention, human recombinant serotonin (5-Hydroxytryptamine) 5-HT6 receptor expressed in human HeLa cells (Monsma, F. Jr. et al, Mol. Pharmacol. 43:320, 1993) in a modified Tris-HCl buffer (50 mM Tris-HCl, pH 7.4, 150 mM NaCl, 2 mM Ascorbic Acid, 0.001% BSA) was used. Compounds of the invention were incubated with 1.5 nM [3H]Lysergic acid diethylamide (LSD) for 120 min at 37° C. Non-specific binding was estimated in the presence of 5 μM Serotonin (5-HT). Receptor proteins were filtered and washed, the filters were then counted to determine [3H]LSD specifically bound. Compounds were screened at 1 μM or lower, using 1% DMSO as vehicle. Biochemical assay results are presented as the percent inhibition of specific binding in Table 4.

[6] = target: T6, human recombinant serotonin (5-Hydroxytryptamine) 5-HT7 receptor (Homo sapiens, UniProt P34969); assay: Serotonin 5-HT7 radioligand binding ([3H]LSD); details: compound at 0.1 μM, CHO cells; for inhibition at 0.1 µM: read-out: Percentage inhibition of ligand binding, Serotonin 5-HT7
T6 construct: expressed in transfected cells; host or cells: CHO
T6 sequence (P34969 whole entry): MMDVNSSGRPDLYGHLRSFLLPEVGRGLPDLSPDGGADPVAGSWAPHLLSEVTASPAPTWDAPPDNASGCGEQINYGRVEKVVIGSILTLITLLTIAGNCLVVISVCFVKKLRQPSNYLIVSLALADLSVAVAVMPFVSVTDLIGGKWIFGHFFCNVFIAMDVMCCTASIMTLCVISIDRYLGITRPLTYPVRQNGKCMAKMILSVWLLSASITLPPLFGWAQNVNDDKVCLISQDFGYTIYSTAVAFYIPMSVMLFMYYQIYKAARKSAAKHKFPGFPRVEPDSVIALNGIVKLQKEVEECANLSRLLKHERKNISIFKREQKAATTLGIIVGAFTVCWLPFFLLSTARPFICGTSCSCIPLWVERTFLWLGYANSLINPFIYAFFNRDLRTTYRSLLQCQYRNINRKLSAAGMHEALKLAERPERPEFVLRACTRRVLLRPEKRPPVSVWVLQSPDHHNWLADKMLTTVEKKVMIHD
Experimental: To evaluate in radioligand binding assays the activity of compounds of the invention, human recombinant serotonin (5-Hydroxytryptamine) 5-HT7 receptor expressed in Chinese hamster ovary (CHO) cells (Roth, B. et al, J. Pharmacol. Exp. Ther. 268:1403, 1994; Shen, Y. et al, J. Biol. Chem. 268:18200, 1993) in a modified Tris-HCl buffer (50 mM Tris-HCl, pH 7.4, 10 mM MgCl2, 0.5 mM EDTA) was used. Compounds of invention were incubated with 5.5 nM [^3H] Lysergic acid diethylamide (LSD) for 2 h at 25° C. Non-specific binding was estimated in the presence of 10 μM Serotonin (5-HT). Receptor proteins were filtered and washed, the filters were then counted to determine [^3H]LSD specifically bound. Compounds were screened at 1 μM or lower, using 1% DMSO as vehicle. Biochemical assay results are presented as the percent inhibition of specific binding in Table 4.

Structure (SMILES) | inhibition at 0.1 µM [1] | inhibition at 0.1 µM [2] | inhibition at 1 µM [3] | inhibition at 1 µM [4] | inhibition at 0.1 µM [5] | inhibition at 0.1 µM [6] | Percentage inhibition of ligand binding, Serotonin 5-HT2C ([1]; 0.1 µM) | Percentage inhibition of ligand binding, Serotonin 5-HT2A ([2]; 0.1 µM) | Percentage inhibition of ligand binding, Dopamine D2L [3] | Histamine H1 Binding (1 μM), percentage inhibition [4] | Percentage inhibition of ligand binding, Serotonin 5-HT6 [5] | Percentage inhibition of ligand binding, Serotonin 5-HT7 ([6]; 0.1 µM)
Cc1ccc2c(c1)c1c3n2CC(c2ccc(F)cc2)=CCC3(C)CN(C)C1 (stereo not drawn) [Compound 1, 6-(4-fluoro-phenyl)-2,3a,10-trimethyl-1,2,3,3a,4,7-hexahydro-2,7a-diaza-cyclohepta[jk]fluorene] | 45% | 56% | 12% | 11% | 8% | 26% |  |  |  |  |  | 
Cc1ccc2c(c1)c1c3n2CC(c2ccc(F)cc2)CC3(C)CN(C)C1 (stereo not drawn) [Compound 2] |  |  |  |  |  |  | 36% | 49% | 13% | 63% | 12% | 34%
Cc1ccc2c(c1)c1c3n2CCC(c2ccc(F)cc2)CC3(C)CN(C)C1 (stereo not drawn) [Compound 3] | 39% | 45% | 22% | 78% | 10% | 46% |  |  |  |  |  | 
Cc1ccc2c(c1)c1c3n2CC(c2ccncc2)CC3(C)CN(C)C1 (stereo not drawn) [Compound 4] | 35% | 47% | 14% | 12% | 6% | 38% |  |  |  |  |  | 
Cc1ccc2c(c1)c1c3n2CC=C(c2ccc(F)cc2)CC3(C)CN(C)C1 (stereo not drawn) [Compound 5] | 32% | 54% | 60% | 94% | 39% | 35% |  |  |  |  |  | 
Cc1ccc2c(c1)c1c3n2CC(c2ccc(F)cc2)CC3(C)CN(C)C1 (stereo not drawn) [Compound 6] | 38% | 54% |  | 51% |  | 39% |  |  | 6% |  | 35% | 
Cc1ccc2c(c1)c1c3n2CC(c2ccc(F)cc2)CCC3(C)CN(C)C1 (stereo not drawn) [Compound 7, 6-(4-fluoro-phenyl)-2,3a,10-trimethyl-1,2,3,3a,4,5,6,7-octahydro-2,7a-diaza-cyclohepta[jk]fluorene] | 41% | 57% | 0% | 19% | 6% | 54% |  |  |  |  |  | 
Cc1ccc2c(c1)c1c3n2CC(c2ccncc2)OC(C)CC3(C)CN(C)C1 (stereo not drawn) [Compound 8] | 54% | 68% | 13% | 6% | 4% | 55% |  |  |  |  |  | 
Cc1ccc2c(c1)c1c3n2CC(C)(c2ccncc2)OC(C)CC3(C)CN(C)C1 (stereo not drawn) [Compound 9] | 73% | 87% | 2% | 6% | 21% | 57% |  |  |  |  |  | 
